Experimental data from patent US10596239B2, “Peptide mixture” (TARGOVAX ASA, priority 2013, dated 2020).
Where “and” joins values, the source holds several entries; their conditions need not be identical. Identical values can stand only once.

Tests used:
splenocytes = experiment: Splenocyte proliferation assay (3H-thymidine) following subcutaneous vaccination of mice with TG02; format: cell-based, BALB/c mice; conditions: 1 μg/200 μL ConA, 5 days
Procedure: In this Example, mice were repeatedly vaccinated subcutaneously with TG02, in order to analyse the immune response. Following the vaccination, splenocytes were harvested, and the proliferative response of the splenocytes was measured.
The study was conducted with 3 groups, each compromising 10 female BALB/c mice. The start of the study was performed on two separate days on which 5 of the animals per group were treated. Therefore the groups were divided into part I and part II. The animals were treated subcutaneously at different time points (Table 12).
In all groups the test item was administered at repeated time points (Table 15) by subcutaneous injection between the nape of the neck and the shoulder. The application volume for all groups was 0.1 mL (0.80 mg TG02).
The spleen of all animals was removed, transferred to cell culture medium (RPMI 1640 medium supplemented with 10% FCS, 100 U/ml Penicillin, 100 μg/mL Streptomycin, 2 mM L-Glutamine, and 50 μM beta-mercaptoethanol) and stored on ice. All steps were performed sterile and cells were kept on ice.
A single cell suspension from splenic cells was generated using a cell strainer. After centrifugation (350 g, 5 min, 5±3° C.), supernatant was removed and the cell pellet was resuspended in ACK buffer and incubated for 5 min at RT. 10 mL cell culture medium was added. The samples were left 5 min on bench top to let the cell debris sediment. The suspension above the cell debris was transferred into another tube and was centrifuged (350 g, 5 min, 5±3° C.). The supernatant was removed and the cell pellet was resuspended in 10 mL cell culture medium. After counting of cells, 0.2 Mio cells were seeded in a 96 well plate (180 μL per well; 1,1 *10^6 cells/mL). 9 replicates were plated on each plate for each spleen. • (1) 1 plate for harvesting of supernatant for cytokine measurement after 24 h (results not shown) • (2) 1 plate for harvesting of supernatant for cytokine measurement after 48 h (results not shown) • (3) 1 plate for the proliferation assay
The following stimulations were performed: • 3 replicates: unstimulated (addition of 20 μL cell culture medium) • 3 replicates: stimulation with 10 μM TG02 (8 peptides, 10 μM end concentration per peptide, addition in 20 μL cell culture medium) • 3 replicates: stimulation with 1 μg/200 μL, ConA (Concanavalin A) (addition of 1 μg ConA in 2.0 μL cell culture medium)
Incubation at 37° C. and 5% CO2 for 24 h (1), […] or 5 days (3).
Proliferation Assay • (3) After 5 days, 1 μCi/well ^3H-Thymidine was added to the samples, which were then incubated for 18 h at 37° C. and 5% CO2. The plates were then frozen at ≤−20° C.
Plates were thawed at RT. After washing off the harvester, the samples were transferred to a filter plate using the harvester followed by 5 washing steps using water. Filter plates were dried at RT overnight. A foil was stuck to the bottom of the filter plates and 20 μL scintillation fluid was added to the wells. After incubation of 1 h at RT, the samples were measured using a TopCount NXT and the stimulation index (SI) was calculated. SI=CPM of stimulated samples/CPM of control samples.

T cells = experiment: 3-days T cell proliferation assay (3H-thymidine) after three rounds of in vitro stimulation of PBMC bulk cultures with RAS peptides; format: cell-based, human; conditions: bulk cultures stimulated three rounds with TG02 + 13R, 10 μM peptide
Procedure: In this example, Buffy coats were collected from 4 normal human donors (Buffy 1, Buffy 2, Buffy 3, and Buffy 4) and were cultured in vitro. The in vitro PBMCs were stimulated with a single RAS peptide or a mixture of RAS peptides, and T cell proliferation assays performed.
The procedure must be performed at room temperature until point 5. All handling of cells in the open is done in a vertical laminar flow hood. • 1. Rapidly transfer the vials, each vial with frozen PBMC from a buffy coat (Buffy 1, Buffy 2, Buffy 3, and Buffy 4), to a water bath at 37° C. • 2. Shake the vials manually at regular intervals (approx. 2-3 min.) and remove them from the water bath while some ice is still present. • 3. When all the ice is melted, transfer 1 ml of CellGro DC medium drop-wise to the cell suspension. • 4. Transfer the cell suspension to a 50 ml tube containing 20 ml of CellGro DC medium. • 5. Centrifuge cells at 500 G for 5 min at room temperature. • 6. Resuspend the cells in 5 ml CellGro DC medium, • 7. Count the number of viable cells using a Bürker chamber or KOVA Galsstic slides and adjust the cell concentration to 2×10^6cells/ml in complete CellGro DC medium (see recipe). Total cell numbers: Buffy 1-45×10^6, Buffy 2-27.5×10^6, Buffy 3-40.5×10^6, and Buffy 4-40.5×10^6 cells. b. Bulk Cultures for Increasing Number of RAS Peptide Reactive T Cells • 1. […]

| Substance | Counts per minute (CPM), Splenocytes + ConA, mean (splenocytes; Mean Mouse #4, vaccinated with TG02) | Counts per minute (CPM), Splenocytes + ConA, mean (splenocytes; Mean Mouse #7, vaccinated with TG02) [CPM] | Counts per minute (CPM), Splenocytes + ConA, mean (splenocytes; Mean Mouse #24, vaccinated with TG02 + ViscoGel) [CPM] | Counts per minute (CPM), Splenocytes + ConA, mean (splenocytes; Mean Mouse #29, vaccinated with TG02 + ViscoGel) | Counts per minute (CPM), Splenocytes + ConA, replicate (splenocytes; Mouse #4, vaccinated with TG02) | Counts per minute (CPM), Splenocytes + ConA, replicate (splenocytes; Mouse #7, vaccinated with TG02) | Counts per minute (CPM), Splenocytes + ConA, replicate (splenocytes; Mouse #24, vaccinated with TG02 + ViscoGel) | Counts per minute (CPM), Splenocytes + ConA, replicate (splenocytes; Mouse #29, vaccinated with TG02 + ViscoGel) | Counts per minute (CPM), Splenocytes + ConA, mean (splenocytes; Mouse #30 (last line, mean), vaccinated with TG02 + ViscoGel) | Counts per minute (CPM), Splenocytes + ConA, replicate (splenocytes; Mouse #30, vaccinated with TG02 + ViscoGel) | Counts per minute (CPM), APC + T cell + 13C, replicate (T cells; Donor #3) | Counts per minute (CPM), APC + T cell + 13C, mean (T cells; Mean Donor #3) [CPM] |
| --- | --- | --- | --- | --- | --- | --- | --- | --- | --- | --- | --- | --- |
| Concanavalin A [ConA] | 15,210 CPM | 6158 | 8823 | 10,935 CPM | 15,113 CPM and 12,612 CPM and 17,906 CPM | 5305 CPM and 6252 CPM and 6916 CPM | 7834 CPM and 8578 CPM and 10,057 CPM | 9480 CPM and 13,292 CPM and 10,033 CPM | 36,687 CPM | 32,205 CPM and 35,668 CPM and 42,149 CPM | – | – |
| KLVVVGAGCVGKSALTI (listed as Homo sapiens) [13C] | – | – | – | – | – | – | – | – | – | – | 27813 CPM and 32522 CPM and 28869 CPM | 29735 |
